According to patent publication US12208088B2 (Genentech, Inc., priority 2018, dated 2025):
Structures can show the parent of a compound that is named as a salt.

target: HPK1 (Homo sapiens (Human), UniProt Q92918); assay: HPK1 Lantha binding assay ("Lanth"); conditions: binding assays; Morrison Ki fit
Summary of the method: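 Ki values are from Morrison-equation fitting of 665/615 nm TR-FRET signals, taking enzyme level, tracer level and tracer Kd into account. The assay mix held HPK1 (2 nM), Eu-anti-GST antibody (2 nM) and Tracer222 (15 nM). Incubations were two 1 h steps at 23 °C, on 5-fold serial compound dilutions.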

Sequence of HPK1 (Q92918 1-346 limits assumed): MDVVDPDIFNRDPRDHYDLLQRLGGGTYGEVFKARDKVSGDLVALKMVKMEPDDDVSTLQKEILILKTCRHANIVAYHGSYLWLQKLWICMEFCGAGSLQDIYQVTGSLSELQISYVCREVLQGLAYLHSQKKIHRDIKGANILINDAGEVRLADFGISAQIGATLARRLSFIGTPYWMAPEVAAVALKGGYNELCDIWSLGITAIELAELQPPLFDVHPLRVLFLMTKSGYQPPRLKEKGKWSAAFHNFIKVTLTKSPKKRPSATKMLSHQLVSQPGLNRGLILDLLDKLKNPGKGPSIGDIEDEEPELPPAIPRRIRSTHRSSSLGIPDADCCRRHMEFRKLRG

Row | Compound | Ki
1 | NC(=O)CCn1cc(-c2cnc3c(c2Cl)C2(CC=CC2)CN3)cn1 [Compound 311, 3-(4-(4′-Chloro-1′,2′-dihydrospiro[cyclopentane-1,3′-pyrrolo[2,3-b]pyridin]-3-en-5′-yl)-1H-pyrazol-1-yl)propanamide] | 0.161 µM
2 | COc1c(-c2c[nH]c3ccc(C#N)cc23)cnc2c1C1(CC1)CN2 [Compound 315, 3-(4′-Methoxy-1′,2′-dihydrospiro[cyclopropane-1,3′-pyrrolo[2,3-b]pyridin]-5′-yl)-1H-indole-5-carbonitrile] | 0.0344 µM
3 | OCCn1cc(-c2cnc3c(c2Cl)C2(CC=CC2)CN3)cn1 [Compound 317, 2-(4-(4′-Chloro-1′,2′-dihydrospiro[cyclopentane-1,3′-pyrrolo[2,3-b]pyridin]-3-en-5′-yl)-1H-pyrazol-1-yl)ethan-1-ol] | 0.209 µM
4 | NC(=O)Cn1cc(-c2cnc3c(c2Cl)C2(CC=CC2)CN3)cn1 [Compound 318, 2-(4-(4′-Chloro-1′,2′-dihydrospiro[cyclopentane-1,3′-pyrrolo[2,3-b]pyridin]-3-en-5′-yl)-1H-pyrazol-1-yl)acetamide] | 0.236 µM
5 | CN(C)C(=O)Cn1cc(-c2cnc3c(c2Cl)C2(CC=CC2)CN3)cn1 [Compound 319, 2-(4-(4′-Chloro-1′,2′-dihydrospiro[cyclopentane-1,3′-pyrrolo[2,3-b]pyridin]-3-en-5′-yl)-1H-pyrazol-1-yl)-N,N-dimethylacetamide] | 0.306 µM
6 | CC(C)(O)Cn1cc(-c2cnc3c(c2Cl)C2(CC=CC2)CN3)cn1 [Compound 320, 1-(4-(4′-Chloro-1′,2′-dihydrospiro[cyclopentane-1,3′-pyrrolo[2,3-b]pyridin]-3-en-5′-yl)-1H-pyrazol-1-yl)-2-methylpropan-2-ol] | 0.337 µM
7 | Cc1[nH]ncc1-c1cnc2c(c1)C1(CC1)CN2 [Compound 321, 5′-(5-Methyl-1H-pyrazol-4-yl)-1′,2′-dihydrospiro[cyclopropane-1,3′-pyrrolo[2,3-b]pyridine]] | 0.321 µM
8 | N#Cc1ccc2[nH]nc(-c3cnc4c(c3)C3(CC3)CN4)c2c1 [Compound 322, 3-(1′,2′-Dihydrospiro[cyclopropane-1,3′-pyrrolo[2,3-b]pyridin]-5′-yl)-1H-indazole-5-carbonitrile] | 0.0373 µM
9 | Clc1c(-c2cnn(Cc3ccccc3)c2)cnc2c1C1(CC=CC1)CN2 [Compound 323, 5′-(1-Benzyl-1H-pyrazol-4-yl)-4′-chloro-1′,2′-dihydrospiro[cyclopentane-1,3′-pyrrolo[2,3-b]pyridin]-3-ene] | 0.603 µM
10 | CN1CCN(c2cc(C#N)cc3c(-c4cnc5c(c4)C4(CC4)CN5)c[nH]c23)C(=O)C1 [Compound 324, 3-(1′,2′-Dihydrospiro[cyclopropane-1,3′-pyrrolo[2,3-b]pyridin]-5′-yl)-7-(4-methyl-2-oxopiperazin-1-yl)-1H-indole-5-carbonitrile] | 0.0304 µM
11 | N#Cc1ccc2[nH]cc(-c3cnc4c(c3Cl)[C@]3(CC[C@H](O)CC3)CN4)c2c1 [Compound 325a, 3-((1s,4s)-4′-Chloro-4-hydroxy-1′,2′-dihydrospiro[cyclohexane-1,3′-pyrrolo[2,3-b]pyridin]-5′-yl)-1H-indole-5-carbonitrile] | 0.0407 µM
12 | Cc1n[nH]cc1-c1ccc2[nH]cc(-c3cnc4c(c3)C3(CC3)CN4)c2c1 [Compound 326, 5′-(5-(3-Methyl-1H-pyrazol-4-yl)-1H-indol-3-yl)-1′,2′-dihydrospiro[cyclopropane-1,3′-pyrrolo[2,3-b]pyridine]] | 0.076 µM
13 | COCCn1cc(-c2cnc3c(c2Cl)C2(CC=CC2)CN3)cn1 [Compound 327, 4′-Chloro-5′-(1-(2-methoxyethyl)-1H-pyrazol-4-yl)-1′,2′-dihydrospiro[cyclopentane-1,3′-pyrrolo[2,3-b]pyridin]-3-ene] | 0.397 µM
14 | c1ccc2c(c1)nnn2-c1cnc2c(c1)C1(CC1)CN2 [Compound 332, 5-(Benzotriazol-1-yl)spiro[1,2-dihydropyrrolo[2,3-b]pyridine-3,1′-cyclopropane]] | 0.57 µM
15 | c1nnc(-c2ccc3[nH]cc(-c4cnc5c(c4)C4(CC4)CN5)c3c2)o1 [Compound 334, 2-(3-(1′,2′-Dihydrospiro[cyclopropane-1,3′-pyrrolo[2,3-b]pyridin]-5′-yl)-1H-indol-5-yl)-1,3,4-oxadiazole Formate Salt] | 0.048 µM
16 | Cn1cnnc1-c1ccc2[nH]cc(-c3cnc4c(c3)C3(CC3)CN4)c2c1 [Compound 335, 5′-(5-(4-Methyl-4H-1,2,4-triazol-3-yl)-1H-indol-3-yl)-1′,2′-dihydrospiro[cyclopropane-1,3′-pyrrolo[2,3-b]pyridine]] | 0.13 µM
17 | Cc1cc2[nH]cc(-c3cnc4c(c3)C3(CC3)CN4)c2cc1-c1cnn(C)c1 [Compound 336, 5′-(6-Methyl-5-(1-methyl-1H-pyrazol-4-yl)-1H-indol-3-yl)-1′,2′-dihydrospiro[cyclopropane-1,3′-pyrrolo[2,3-b]pyridine]] | 0.0466 µM

Continued, values first:

Row | Ki | Compound
18 | 0.0459 µM | Clc1ccc2[nH]cc(-c3cnc4c(c3)C3(CC3)CN4)c2c1 [Compound 312, 5′-(5-Chloro-1H-indol-3-yl)-1′,2′-dihydrospiro[cyclopropane-1,3′-pyrrolo[2,3-b]pyridine]]
19 | 0.0731 µM | Cc1ccc2[nH]cc(-c3cnc4c(c3)C3(CC3)CN4)c2c1 [Compound 313, 5′-(5-Methyl-1H-indol-3-yl)-1′,2′-dihydrospiro[cyclopropane-1,3′-pyrrolo[2,3-b]pyridine]]
20 | 0.125 µM | c1ccc2c(-c3cnc4c(c3)C3(CC3)CN4)c[nH]c2c1 [Compound 314, 5′-(1H-Indol-3-yl)-1′,2′-dihydrospiro[cyclopropane-1,3′-pyrrolo[2,3-b]pyridine]]
21 | 0.492 µM | Fc1cccc2[nH]cc(-c3cnc4c(c3)C3(CC3)CN4)c12 [Compound 316, 5′-(4-Fluoro-1H-indol-3-yl)-1′,2′-dihydrospiro[cyclopropane-1,3′-pyrrolo[2,3-b]pyridine]]
22 | 0.289 µM | c1nc2c(cc1-c1c[nH]c3ccc(C4CC4)cc13)C1(CC1)CN2 [Compound 328, 5′-(5-Cyclopropyl-1H-indol-3-yl)-1′,2′-dihydrospiro[cyclopropane-1,3′-pyrrolo[2,3-b]pyridine]]
23 | 0.09 µM | c1cc2[nH]cc(-c3cnc4c(c3)C3(CC3)CN4)c2cn1 [Compound 329, 5-(1H-Pyrrolo[3,2-c]pyridin-3-yl)spiro[1,2-dihydropyrrolo[2,3-b]pyridine-3,1′-cyclopropane]]
24 | 0.243 µM | CS(=N)(=O)c1ccc2[nH]cc(-c3cnc4c(c3)C3(CC3)CN4)c2c1 (stereo not drawn) [Compound 331, (3-(1′,2′-Dihydrospiro[cyclopropane-1,3′-pyrrolo[2,3-b]pyridin]-5′-yl)-1H-indol-5-yl)(imino)(methyl)-γ6-sulfanone]
25 | 0.0423 µM | c1cc2c(-c3cnc4c(c3)C3(CC3)CN4)c[nH]c2cn1 [Compound 333, 5-(1H-Pyrrolo[2,3-c]pyridin-3-yl)spiro[1,2-dihydropyrrolo[2,3-b]pyridine-3,1′-cyclopropane]]
26 | 0.0797 µM | Fc1ccc2[nH]cc(-c3cnc4c(c3)C3(CC3)CN4)c2c1 [Compound 338, 5′-(5-Fluoro-1H-indol-3-yl)-1′,2′-dihydrospiro[cyclopropane-1,3′-pyrrolo[2,3-b]pyridine]]
27 | 0.373 µM | CN(C)C(=O)c1ccc2[nH]cc(-c3cnc4c(c3)C3(CC3)CN4)c2c1 [Compound 339, 3-(1′,2′-Dihydrospiro[cyclopropane-1,3′-pyrrolo[2,3-b]pyridin]-5′-yl)-N,N-dimethyl-1H-indole-5-carboxamide]
